According to PubChem BioAssay (NCI):
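Growth conditions: 96-well plates. Treatment: test compound, 48 hours, 5 concentrations. Analysis: linear interpolation between bracketing concentrations; unreached endpoints set to highest concentration. GI50 is the concentration that inhibits growth by half. At the TGI there is no net growth.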

What was measured:
Test in all cases: DTP human tumour cell line panel, 48 h
[1] = system: IGROV1 ovarian
[2] = system: NCI-H460 lung
[3] = system: HL-60(TB) leukemia
[4] = system: K-562 leukemia
[5] = system: NCI-H23 lung
[6] = system: NCI-H226 lung
[7] = system: TK-10 renal
[8] = system: HCT-15 colon
[9] = system: KM12 colon
[10] = system: DU-145 prostate
[11] = system: M14 melanoma
[12] = system: A498 renal
[13] = system: SNB-19 CNS
[14] = system: HOP-62 NSCLC
[15] = system: UO-31 renal
[16] = system: MOLT-4 leukemia
[17] = system: COLO 205 colon
[18] = system: OVCAR-8 ovarian
[19] = system: MDA-MB-468 breast
[20] = system: ACHN renal
[21] = system: RPMI-8226 leukemia
[22] = system: HCT-116 colon
[23] = system: T-47D breast
[24] = system: 786-0 renal
[25] = system: SF-539 CNS
[26] = system: PC-3 prostate
[27] = system: EKVX NSCLC
[28] = system: MALME-3M melanoma
[29] = system: LOX IMVI melanoma
[30] = system: SF-268 CNS
[31] = system: MDA-MB-435
[32] = system: CCRF-CEM leukemia
[33] = system: HOP-92 NSCLC
[34] = system: RXF 393 renal
[35] = system: HS 578T breast
[36] = system: NCI/ADR-RES ovarian
[37] = system: OVCAR-3 ovarian
[38] = system: BT-549 breast
[39] = system: MDA-MB-231 breast
[40] = system: U251 CNS
[41] = system: UACC-62 melanoma
[42] = system: SK-MEL-28 melanoma
[43] = system: NCI-H522 lung
[44] = system: SK-MEL-5 melanoma
[45] = system: SK-MEL-2 melanoma
[46] = system: SN12C renal
[47] = system: UACC-257 melanoma
[48] = system: SF-295 CNS
[49] = system: OVCAR-4 ovarian
[50] = system: CAKI-1 renal
[51] = system: HT29 colon
[52] = system: OVCAR-5 ovarian
[53] = system: MCF7 breast
[54] = system: HCC-2998 colon
[55] = system: SNB-75 CNS
[56] = system: SR leukemia
[57] = system: SK-OV-3 ovarian
[58] = system: SW-620 colon
[59] = system: A549 NSCLC

## C#C[C@]1(O)CC[C@H]2[C@@H]3CC=C4c5sc(-c6ccc([N+](=O)[O-])cc6)nc5CC[C@]4(C)[C@H]3CC[C@@]21C
[1]
  GI50: 10.3 µM
  TGI: 30.9 µM
[2]
  GI50: 6.19 µM
  TGI: 25.8 µM
[3]
  GI50: 13.5 µM
  TGI: 42.6 µM
[4]
  GI50: 3.26 µM
  TGI: > 100 µM
[5]
  GI50: 13.8 µM
  TGI: 29.9 µM
[6]
  GI50: 18.1 µM
  TGI: 50.2 µM
[7]
  GI50: 13.8 µM
  TGI: 26.7 µM
[8]
  GI50: 3.99 µM
  TGI: 23.9 µM
[9]
  GI50: 17 µM
  TGI: 38.4 µM
[10]
  GI50: 12.8 µM
  TGI: 30.3 µM
[11]
  GI50: 2.74 µM
  TGI: 12.2 µM
[12]
  GI50: 4.04 µM
  TGI: 13.8 µM
[13]
  GI50: 13.8 µM
  TGI: 29.8 µM
[14]
  GI50: 11.5 µM
  TGI: 30 µM
[15]
  GI50: 5.02 µM
  TGI: 16.2 µM
[16]
  GI50: 2.61 µM
  TGI: 33.1 µM
[17]
  GI50: 14.9 µM
  TGI: 33.8 µM
[18]
  GI50: 15.3 µM
  TGI: 38.5 µM
[19]
  GI50: 12.4 µM
  TGI: 28.9 µM
[20]
  GI50: 12.2 µM
  TGI: 24.6 µM
[21]
  GI50: 0.404 µM
  TGI: 6.27 µM
[22]
  GI50: 10.2 µM
  TGI: 23.3 µM
[23]
  GI50: 7.23 µM
  TGI: 25.2 µM
[24]
  GI50: 1.84 µM
  TGI: 13.4 µM
[25]
  GI50: 0.895 µM
  TGI: 3.61 µM
[26]
  GI50: 7.18 µM
  TGI: 95.7 µM
[27]
  GI50: 10.1 µM
  TGI: 23.8 µM
[28]
  GI50: 3.59 µM
  TGI: 16.5 µM
[29]
  GI50: 6.89 µM
  TGI: 33.1 µM
[30]
  GI50: 12.8 µM
  TGI: 43.6 µM
[31]
  GI50: 11.9 µM
  TGI: 25.9 µM
[32]
  GI50: 4.36 µM
  TGI: 31.9 µM
[33]
  GI50: 22.3 µM
  TGI: 47.4 µM
[34]
  GI50: 0.625 µM
  TGI: 3.18 µM
[35]
  GI50: 2.04 µM
  TGI: 10.3 µM
[36]
  GI50: 16.4 µM
  TGI: 67.9 µM
[37]
  GI50: 14.9 µM
  TGI: 31.7 µM
[38]
  GI50: 3.76 µM
  TGI: 16.7 µM
[39]
  GI50: 12.3 µM
  TGI: 27.4 µM
[40]
  GI50: 2.99 µM
  TGI: 18.8 µM
[41]
  GI50: 14.3 µM
  TGI: 27.4 µM
[42]
  GI50: 7.33 µM
  TGI: 20.5 µM
[43]
  GI50: 15.1 µM
  TGI: 38 µM
[44]
  GI50: 5.45 µM
  TGI: 17.9 µM
[45]
  GI50: 7.18 µM
  TGI: 21.3 µM
[46]
  GI50: 13 µM
  TGI: 26.3 µM
[47]
  GI50: 12.1 µM
  TGI: 25 µM
[48]
  GI50: 0.41 µM
  TGI: 1.8 µM
[49]
  GI50: 15.4 µM
  TGI: 43.7 µM
[50]
  GI50: 10.8 µM
  TGI: 22.7 µM
[51]
  GI50: 11.4 µM
  TGI: 35.2 µM
[52]
  GI50: 12 µM
  TGI: 24.3 µM
[53]
  GI50: 3.07 µM
  TGI: 16.6 µM
[54]
  GI50: 7.21 µM
  TGI: 23.1 µM
[55]
  GI50: 2.93 µM
  TGI: 18.6 µM
[56]
  GI50: 2.49 µM
  TGI: > 100 µM
[57]
  GI50: 12.3 µM
  TGI: 30.6 µM
[58]
  GI50: 8.39 µM
  TGI: 27.2 µM
[59]
  GI50: 12.5 µM
  TGI: 36.2 µM
